Test results as given in US10202373B2, “Heteroaryls and uses thereof” (MILLENNIUM PHARMACEUTICALS, INC., priority 2014, dated 2019).

Target: human VPS34 (Homo sapiens (Human), UniProt Q8NEB9)
Experiment: Human VPS34 enzyme assay (Adapta TR-FRET)
Type: biochemical
Conditions: for inhibition at 1.11 µM: 1 h, inhibition of VPS34 at a 1.11 μM concentration, read-out: Percent Inhibition; for IC50: human VPS34 enzyme assay, IC50 ranges
Procedure: VPS34 (accession number GB:BC033004) was cloned into pDEST20-Thombin as N-terminal GST tagged fusion proteins using the Gateway system (Invitrogen, catalog#11804-013). The sequences were verified before recombinant protein expression using the Baculovirus Expression System with Gateway® Technology. For expression VPS34 was infected at 1 MOI in SF9 cells and harvested 72 hours post infection. For purification, VPS34 is purified by Glutathione Sepharose 4 Fast Flow (GE Healthcare #17-5132-03) followed by HiTrap Q (GE Healthcare #17-1153-01). Human VPS34 Enzyme Assay Method 100 nL compounds in DMSO are added to wells of a 384 well microtitre plate (Greiner 780076). At room temperature: 5 ul VPS34 reaction buffer (Invitrogen Assay Buffer Q (diluted 1 in 5 with nanopure water) plus 2 mM DTT and 2 mM MnCl2) containing ATP (20 uM, Promega) and 200 uM PI-PS substrate (Invitrogen PV5122) is added followed immediately by 5 ul VPS34 reaction buffer (as above) containing VPS34 (5 nM, Millennium Protein Sciences Group) and the mixture is incubated with shaking at room temperature for 1 hour. Then 5 ul […]-detect mix (as per Invitrogen Adapta Assay kit (PV5009) instructions (contains kinase quench buffer, TR-FRET buffer, Adapta Eu anti-ADP antibody and Alexa Fluor 647 ADP tracer)) is added to quench the reaction. The plates are then incubated for 30 minutes at room temperature with shaking and then read on a BMG PheraStar Plus reader. For the assay methods described above, test compound percent inhibition, at various concentrations, is calculated relative to control (DMSO and EDTA) treated samples. Compound concentration versus percent inhibition curves are fitted to generate IC50 values. One skilled in the art will appreciate that the values generated either as percentage inhibition at a single concentration or IC50 values are subject to experimental variation. […] Additionally, compounds of the invention that inhibit VPS34 are described with the following IC50 ranges: […]

human VPS34, sequence (Q8NEB9 whole entry): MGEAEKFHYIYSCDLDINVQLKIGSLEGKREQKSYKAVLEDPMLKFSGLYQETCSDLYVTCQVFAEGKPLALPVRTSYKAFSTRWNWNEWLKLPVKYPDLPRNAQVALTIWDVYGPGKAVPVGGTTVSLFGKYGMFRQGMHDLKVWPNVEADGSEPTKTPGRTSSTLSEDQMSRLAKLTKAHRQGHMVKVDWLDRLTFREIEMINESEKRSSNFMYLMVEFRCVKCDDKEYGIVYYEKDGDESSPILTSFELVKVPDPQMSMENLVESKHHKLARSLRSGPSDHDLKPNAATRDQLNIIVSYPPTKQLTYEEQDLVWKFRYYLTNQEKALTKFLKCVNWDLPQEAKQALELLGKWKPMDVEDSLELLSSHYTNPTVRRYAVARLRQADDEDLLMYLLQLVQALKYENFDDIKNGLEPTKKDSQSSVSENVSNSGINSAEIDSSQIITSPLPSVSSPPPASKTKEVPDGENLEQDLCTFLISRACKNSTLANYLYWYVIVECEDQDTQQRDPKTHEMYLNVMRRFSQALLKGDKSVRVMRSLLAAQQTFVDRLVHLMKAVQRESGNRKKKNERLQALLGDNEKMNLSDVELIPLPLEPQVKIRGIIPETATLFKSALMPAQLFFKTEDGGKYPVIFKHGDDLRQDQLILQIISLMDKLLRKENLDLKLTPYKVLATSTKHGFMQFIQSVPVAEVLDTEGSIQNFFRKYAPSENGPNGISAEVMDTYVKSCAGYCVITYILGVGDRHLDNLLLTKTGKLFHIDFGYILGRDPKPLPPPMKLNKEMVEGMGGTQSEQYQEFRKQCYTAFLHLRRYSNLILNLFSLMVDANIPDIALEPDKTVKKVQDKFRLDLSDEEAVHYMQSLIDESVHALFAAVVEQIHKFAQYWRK

Row | Compound | inhibition at 1.11 µM | IC50
1 | CS(=O)(=O)n1ccc2c(-c3ccnc(N)c3)cncc21 [Compound I-32, 4-[1-(methylsulfonyl)-1H-pyrrolo[2,3-c]pyridin-4-yl]pyridin-2-amine] | 30% | > 100 nM
2 | CC(=O)Nc1cc(-c2cncc3c2ccn3S(=O)(=O)N(C)C)ccn1 [Compound I-33, N-{4-[1-(dimethylsulfamoyl)-1H-pyrrolo[2,3-c]pyridin-4-yl]pyridin-2-yl}acetamide] | > 99% | < 10 nM
3 | CC(=O)Nc1cc(-c2cnc(C)c3c2ccn3CC2CC2)ccn1 [Compound I-36, N-{4-[1-(cyclopropylmethyl)-7-methyl-1H-pyrrolo[2,3-c]pyridin-4-yl]pyridin-2-yl}acetamide] | 79% | > 100 nM
4 | CC(=O)Nc1cc(-c2cncc3c2ccn3S(=O)(=O)c2ccccc2)ccn1 [Compound I-39, N-{4-[1-(phenylsulfonyl)-1H-pyrrolo[2,3-c]pyridin-4-yl]pyridin-2-yl}acetamide] | > 99% | < 10 nM
5 | CC(=O)Nc1cc(-c2cnc(CN)c3c2ccn3S(=O)(=O)C2CC2)ccn1 [Compound I-41, N-{4-[7-(aminomethyl)-1-(cyclopropylsulfonyl)-1H-pyrrolo[2,3-c]pyridin-4-yl]pyridin-2-yl}acetamide] | > 99% | 10 to 50 nM
6 | CCOC(=O)Nc1cc(-c2cnc(C)c3c2ccn3S(=O)(=O)C2CC2)ccn1 [Compound I-42, ethyl {4-[1-(cyclopropylsulfonyl)-7-methyl-1H-pyrrolo[2,3-c]pyridin-4-yl]pyridin-2-yl}carbamate] | > 99% | < 10 nM
7 | COC(=O)Nc1cc(-c2cnc(C)c3c2ccn3S(=O)(=O)C2CC2)ccn1 [Compound I-43, methyl {4-[1-(cyclopropylsulfonyl)-7-methyl-1H-pyrrolo[2,3-c]pyridin-4-yl]pyridin-2-yl}carbamate] | > 99% | < 10 nM
8 | CCOC(=O)Nc1cc(-c2cnc(C)c3c2ccn3S(=O)(=O)c2ccccc2)ccn1 [Compound I-47, ethyl {4-[7-methyl-1-(phenylsulfonyl)-1H-pyrrolo[2,3-c]pyridin-4-yl]pyridin-2-yl}carbamate] | > 99% | 10 to 50 nM
9 | Cc1ncc(-c2ccnc(NC(=O)CO)c2)c2ccn(S(=O)(=O)C3CC3)c12 [Compound I-48, N-{4-[1-(cyclopropylsulfonyl)-7-methyl-1H-pyrrolo[2,3-c]pyridin-4-yl]pyridin-2-yl}-2-hydroxyacetamide] | > 99% | 10 to 50 nM

Results, then the compound that gave them:

Row | inhibition at 1.11 µM | IC50 | Compound
10 | > 99% | 10 to 50 nM | CC(=O)Nc1cc(-c2cnc(C)c3c2ccn3S(=O)(=O)c2ccccc2C)ccn1 [Compound I-34, N-(4-{7-methyl-1-[(2-methylphenyl)sulfonyl]-1H-pyrrolo[2,3-c]pyridin-4-yl}pyridin-2-yl)acetamide]
11 | > 99% | < 10 nM | CC(=O)Nc1cc(-c2cncc3c2ccn3S(=O)(=O)C2CC2)ccn1 [Compound I-37, N-{4-[1-(cyclopropylsulfonyl)-1H-pyrrolo[2,3-c]pyridin-4-yl]pyridin-2-yl}acetamide]
12 | 99% | 10 to 50 nM | COC(=O)Nc1cc(-c2cnc(C)c3c2ccn3S(C)(=O)=O)ccn1 [Compound I-38, methyl {4-[7-methyl-1-(methylsulfonyl)-1H-pyrrolo[2,3-c]pyridin-4-yl]pyridin-2-yl}carbamate]
13 | > 99% | 10 to 50 nM | CC(=O)Nc1cc(-c2cnc(C)c3c2ccn3S(=O)(=O)C2CC2)ccn1 [Compound I-44, N-{4-[1-(cyclopropylsulfonyl)-7-methyl-1H-pyrrolo[2,3-c]pyridin-4-yl]pyridin-2-yl}acetamide]
14 | > 99% | 10 to 50 nM | CC(=O)Nc1cc(-c2cnc(C)c3c2ccn3S(C)(=O)=O)ccn1 [Compound I-45, N-{4-[7-methyl-1-(methylsulfonyl)-1H-pyrrolo[2,3-c]pyridin-4-yl]pyridin-2-yl}acetamide]
15 | > 99% | 10 to 50 nM | CC(=O)Nc1cc(-c2cnc(C)c3c2c(F)cn3S(C)(=O)=O)ccn1 [Compound I-46, N-{4-[3-fluoro-7-methyl-1-(methylsulfonyl)-1H-pyrrolo[2,3-c]pyridin-4-yl]pyridin-2-yl}acetamide]
16 | 88% | 10 to 50 nM | O=S(=O)(C1CC1)n1ccc2c(-c3ccnc(Nc4ccncn4)c3)cncc21 [Compound I-49, N-{4-[1-(cyclopropylsulfonyl)-1H-pyrrolo[2,3-c]pyridin-4-yl]pyridin-2-yl}pyrimidin-4-amine]
17 | 82% | 10 to 50 nM | c1cc(Nc2cc(-c3cncc4[nH]ccc34)ccn2)ncn1 [Compound I-50, N-[4-(1H-pyrrolo[2,3-c]pyridin-4-yl)pyridin-2-yl]pyrimidin-4-amine]
18 | 91% | 10 to 50 nM | Cc1nccc(Nc2cc(-c3cnc(C)c4[nH]ccc34)ccn2)n1 [Compound I-51, 2-methyl-N-[4-(7-methyl-1H-pyrrolo[2,3-c]pyridin-4-yl)pyridin-2-yl]pyrimidin-4-amine]
